In the NIST ThermoML archive (doi:10.1021/je800377b):
± gives the expanded uncertainty stated by the source.

Details: Liquid

Row | vapor or sublimation pressure (273.15 K) [kPa] | vapor or sublimation pressure (283.15 K) [kPa] | vapor or sublimation pressure (293.15 K) [kPa] | vapor or sublimation pressure (303.15 K) [kPa] | vapor or sublimation pressure (313.15 K) [kPa] | vapor or sublimation pressure (323.15 K) [kPa] | SMILES
1 | 103 ± 2 | 149 ± 3 | 208 ± 3 | 284 ± 4 | 378 ± 5 | 493 ± 6 | CCCC [butane]
2 | 476 ± 6 | 633 ± 8 | 833 ± 10 | 1079 ± 13 | 1366 ± 17 | 1709 ± 21 | CCC [propane]
